Laboratory results taken from patent US6867284B1, “Peptide inhibitors of hepatitis C virus NS3 protease” (Istituto di Ricerche di Biologia Molecolare P. Angeletti …, priority 1998, dated 2005).

Molecular target: T1, HCV NS3 protease (Hepatitis C virus genotype 1b, UniProt P26663)
T1 construct: an NS3/4A complex comprising the NS3 protease domain
Assay: Inhibition of NS3 protease (HPLC cleavage assay, NS3/4A complex with Pep4AK, substrate peptide 4AB)
Type: biochemical
Settings: Table 2 tetrapeptides and tripeptides; read-out: IC50
Description: Buffer solutions containing 80 μM Pep4AK were preincubated for 10 minutes with 10-200 nM protease and reactions were started by addition of substrate. Six duplicate data points at different substrate concentrations were used to calculate kinetic parameters. Incubation times were chosen in order to obtain <7% substrate conversion and reactions were stopped by addition of 40 μl 1% TFA. Cleavage of peptide substrates was determined by HPLC using a Merck-Hitachi chromatograph equipped with an autosampler. 80 μl samples were injected on a Lichrospher C18 reversed phase cartridge column (4×74 mm, 5 μm, Merck) and fragments were separated using a 10-40% acetonitrile gradient a 5%/min using a flow rate of 2.5 ml/min. Peak detection was accomplished by monitoring both the absorbance at 220 nm and tyrosine fluorescence (λex=260 nm, λem=305 nm). Cleavage products were quantitated by integration of chromatograms with respect to appropriate standards. Kinetic parameters were calculated from nonlinear least-squares fit of initial rates as a function of substrate concentration with the help of a Kaleidagraph software, assuming Michaelis-Menten kinetics.
Ki values of peptide inhibitors were calculated from substrate titration experiments performed in the presence of increasing amounts of inhibitor. Experimental data sets were simultaneously fitted to eq.1 using a multicurve fit macro with the help of a Sigmaplot software: V=(VmaxS)/(Km(1+[…])+S); (eq.1)
Alternatively, Ki values were derived from IC50 values, calculated using a four-parameter logistic function, according to eq.2: IC50−(1+S/Km)Ki (eq.2)

T1 sequence (P26663 1027-1208, other chains not shown): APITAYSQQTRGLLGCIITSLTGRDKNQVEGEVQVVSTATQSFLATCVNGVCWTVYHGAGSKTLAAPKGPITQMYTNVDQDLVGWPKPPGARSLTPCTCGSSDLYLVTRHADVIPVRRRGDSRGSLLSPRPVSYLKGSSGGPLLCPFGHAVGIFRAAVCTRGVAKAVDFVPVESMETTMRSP

Row | Compound | IC50 [µM]
1 | CC(=O)N[C@H](C(=O)N[C@@H](CCC(=O)O)C(=O)N[C@@H](CC1CCCCC1)C(=O)NC(CC(F)F)C(=O)C(=O)O)C(c1ccccc1)c1ccccc1 (some centres unmarked) [Compound 2a] | 10
2 | CC(=O)N[C@H](C(=O)N[C@@H](CCC(=O)O)C(=O)N[C@@H](CC1CCCCC1)C(=O)NC(CC(F)F)C(=O)C(=O)NCc1ccccc1)C(c1ccccc1)c1ccccc1 (some centres unmarked) [Compound 2b] | 11.4
3 | CC(=O)N[C@H]1Cc2cccc(c2)Oc2ccc(cc2)C[C@@H](C(=O)NC(CC(F)F)C(=O)C(=O)O)NC(=O)[C@H](CCC(=O)O)NC1=O (some centres unmarked) [Compound 2c] | 47
4 | CCC(C)[C@H](NC(=O)OCc1ccccc1)C(=O)N[C@H](C(=O)NC(CC(F)F)C(=O)C(=O)O)C(C)C (some centres unmarked) [Compound 3a] | 16
5 | CCC(C)[C@H](NC(=O)OCc1ccccc1)C(=O)N[C@@H](CC1CCCCC1)C(=O)NC(CC(F)F)C(=O)C(=O)O (some centres unmarked) [Compound 3b] | 1.4
6 | CCC(C)[C@H](NC(=O)OCc1ccccc1)C(=O)N[C@@H](CC(C)C)C(=O)NC(CC(F)F)C(=O)C(=O)O (some centres unmarked) [Compound 3c] | 1.4
7 | CCC(C)[C@H](NC(=O)OCc1ccccc1)C(=O)N[C@@H](CCC(=O)O)C(=O)NC(CC(F)F)C(=O)C(=O)O (some centres unmarked) [Compound 3d] | 9.3
8 | CCC(C)[C@H](NC(=O)OCc1ccccc1)C(=O)N[C@@H](CC)C(=O)NC(CC(F)F)C(=O)C(=O)O (some centres unmarked) [Compound 3e] | 3
9 | CCC(C)[C@H](NC(=O)OCc1ccccc1)C(=O)N[C@@H](Cc1ccccc1)C(=O)NC(CC(F)F)C(=O)C(=O)O (some centres unmarked) [Compound 3f] | 3
10 | CCC(C)[C@H](NC(=O)OCc1ccccc1)C(=O)N[C@@H](C)C(=O)NC(CC(F)F)C(=O)C(=O)O (some centres unmarked) [Compound 3g] | 16
11 | CCC(C)[C@H](NC(=O)NCc1ccccc1)C(=O)N[C@@H](CC(C)C)C(=O)NC(CC(F)F)C(=O)C(=O)O (some centres unmarked) [Compound 4a] | 6.5
12 | CCC(C)[C@H](NC(=O)NCc1cc(C(F)(F)F)cc(C(F)(F)F)c1)C(=O)N[C@@H](CC(C)C)C(=O)NC(CC(F)F)C(=O)C(=O)O (some centres unmarked) [Compound 4b] | 39
13 | CCC(C)[C@H](NC(=O)OCc1ccc(C(=O)OC)cc1)C(=O)N[C@@H](CC(C)C)C(=O)NC(CC(F)F)C(=O)C(=O)O (some centres unmarked) [Compound 4c] | 1.7
14 | CCC(C)[C@H](NC(=O)OCc1ccc(C(=O)O)cc1)C(=O)N[C@@H](CC(C)C)C(=O)NC(CC(F)F)C(=O)C(=O)O (some centres unmarked) [Compound 4d] | 0.44
15 | CCC(C)[C@H](NC(=O)OCC1c2ccccc2-c2ccccc21)C(=O)N[C@@H](CC(C)C)C(=O)NC(CC(F)F)C(=O)C(=O)O (some centres unmarked) [Compound 4e] | 7.8
16 | CCC(C)[C@H](NC(=O)OC(C)(C)C)C(=O)N[C@@H](CC(C)C)C(=O)NC(CC(F)F)C(=O)C(=O)O (some centres unmarked) [Compound 4f] | 1
17 | CC[C@@H](C)[C@H](NC(=O)OC(C)(C)C)C(=O)N[C@@H](CC(C)C)C(=O)NC(CC(F)F)C(=O)C(=O)O (some centres unmarked) [Compound 5a] | 0.7
18 | CC(C)C[C@H](NC(=O)OC(C)(C)C)C(=O)N[C@@H](CC(C)C)C(=O)NC(CC(F)F)C(=O)C(=O)O (some centres unmarked) [Compound 5b] | 1.2
19 | CC(C)C[C@H](NC(=O)[C@H](Cc1ccccc1)NC(=O)OC(C)(C)C)C(=O)NC(CC(F)F)C(=O)C(=O)O (some centres unmarked) [Compound 5c] | 1.5

Row | Compound | IC50 [µM]
20 | CC(C)C[C@H](NC(=O)[C@@H](NC(=O)OC(C)(C)C)C(C)C)C(=O)NC(CC(F)F)C(=O)C(=O)O (some centres unmarked) [Compound 5d] | 0.5
21 | CC(C)C[C@H](NC(=O)[C@H](C)NC(=O)OC(C)(C)C)C(=O)NC(CC(F)F)C(=O)C(=O)O (some centres unmarked) [Compound 5f] | 8.9
22 | CCCC[C@H](NC(=O)OC(C)(C)C)C(=O)N[C@@H](CC(C)C)C(=O)NC(CC(F)F)C(=O)C(=O)O (some centres unmarked) [Compound 5g] | 1.2
23 | CCC[C@H](NC(=O)OC(C)(C)C)C(=O)N[C@@H](CC(C)C)C(=O)NC(CC(F)F)C(=O)C(=O)O (some centres unmarked) [Compound 5h] | 1.5
24 | CC(C)C[C@H](NC(=O)[C@H](CCC(=O)OCc1ccccc1)NC(=O)OC(C)(C)C)C(=O)NC(CC(F)F)C(=O)C(=O)O (some centres unmarked) [Compound 5i] | 5.8
25 | CC(C)C[C@H](NC(=O)[C@H](CCC(=O)O)NC(=O)OC(C)(C)C)C(=O)NC(CC(F)F)C(=O)C(=O)O (some centres unmarked) [Compound 5j] | 0.33
26 | CC(C)C[C@H](NC(=O)[C@H](CCC(N)=O)NC(=O)OC(C)(C)C)C(=O)NC(CC(F)F)C(=O)C(=O)O (some centres unmarked) [Compound 5k] | 2.1
27 | CC(C)C[C@H](NC(=O)[C@H](CC(=O)OCc1ccccc1)NC(=O)OC(C)(C)C)C(=O)NC(CC(F)F)C(=O)C(=O)O (some centres unmarked) [Compound 5l] | 3.5
28 | CC(C)C[C@H](NC(=O)[C@H](CC(=O)O)NC(=O)OC(C)(C)C)C(=O)NC(CC(F)F)C(=O)C(=O)O (some centres unmarked) [Compound 5m] | 1.6
29 | CC(C)C[C@H](NC(=O)[C@@H](NC(=O)OC(C)(C)C)C(C)(C)C)C(=O)NC(CC(F)F)C(=O)C(=O)O (some centres unmarked) [Compound 5n] | 0.72
30 | CC(C)(C)OC(=O)N[C@@H](CCC(=O)O)C(=O)N[C@@H](CC(F)F)C(=O)NC(CC(F)F)C(=O)C(=O)O (some centres unmarked) [Compound 5o] | 0.3
31 | CC(C)C[C@H](NC(=O)[C@H](C/C=C/c1ccccc1)NC(=O)OC(C)(C)C)C(=O)NC(CC(F)F)C(=O)C(=O)O (some centres unmarked) [Compound 5p] | 2.4
32 | CC(C)CC[C@H](NC(=O)OC(C)(C)C)C(=O)N[C@@H](CC(C)C)C(=O)NC(CC(F)F)C(=O)C(=O)O (some centres unmarked) [Compound 5q] | 1.6
33 | CC(C)C[C@H](NC(=O)[C@H](Cc1ccc(Cl)c(Cl)c1)NC(=O)OC(C)(C)C)C(=O)NC(CC(F)F)C(=O)C(=O)O (some centres unmarked) [Compound 5r] | 5.8
34 | CC(C)C[C@H](NC(=O)[C@H](Cc1cccs1)NC(=O)OC(C)(C)C)C(=O)NC(CC(F)F)C(=O)C(=O)O (some centres unmarked) [Compound 5s] | 3.8
35 | CC(C)C[C@H](NC(=O)[C@H](Cc1cccc(Br)c1)NC(=O)OC(C)(C)C)C(=O)NC(CC(F)F)C(=O)C(=O)O (some centres unmarked) [Compound 5t] | 2.5
36 | CC(C)C[C@H](NC(=O)[C@@H](NC(=O)OC(C)(C)C)C1CCCC1)C(=O)NC(CC(F)F)C(=O)C(=O)O (some centres unmarked) [Compound 5u] | 0.4
37 | CC(C)COC(=O)N[C@@H](CCC(=O)O)C(=O)N[C@@H](CC(C)C)C(=O)NC(C=O)CC(F)F (some centres unmarked) [Compound 6a] | 26
38 | CC(C)C[C@H](NC(=O)[C@@H](NC(=O)OCc1ccccc1)C(C)C)C(=O)NC(C=O)CC(F)F (some centres unmarked) [Compound 6b] | 50
